Experimental data reported in PubChem BioAssay (NCI).
Values joined by “and” are separate entries in the source; they are usually repeats but may differ in a detail not shown here. Identical values can stand only once.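 Exposure lasted 48 hours, with cells grown in 96-well plates and compounds tested at five concentrations. GI50 = concentration required for 50% inhibition of growth. TGI: concentration producing complete growth inhibition.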

Key:
Test in all cases: inhibition of tumour cell growth, NCI panel, 48 h
COLO 205 colon = test system: COLO 205 colon
DU-145 prostate = test system: DU-145 prostate
HCC-2998 colon = test system: HCC-2998 colon
NCI-H23 lung = test system: NCI-H23 lung
PC-3 prostate = test system: PC-3 prostate
SF-268 CNS = test system: SF-268 CNS
SK-OV-3 ovarian = test system: SK-OV-3 ovarian
SNB-19 CNS = test system: SNB-19 CNS
UACC-257 melanoma = test system: UACC-257 melanoma
UO-31 renal = test system: UO-31 renal

## Clc1ccc(Nc2nnc(CNc3ccc(-c4nnc(Nc5ccc(Cl)cc5)o4)cc3)o2)cc1
COLO 205 colon
  TGI: 36.3 µM
DU-145 prostate
  TGI: 26.2 µM
HCC-2998 colon
  TGI: 27.8 µM
NCI-H23 lung
  TGI: 36 µM
PC-3 prostate
  TGI: 25.3 µM
SF-268 CNS
  TGI: 73.9 µM
SK-OV-3 ovarian
  TGI: 49.7 µM
SNB-19 CNS
  TGI: 46 µM
UACC-257 melanoma
  TGI: 50.6 µM
UO-31 renal
  TGI: 35.2 µM

## COC(=O)C1Cc2c([nH]c3ccccc23)-c2[nH]c3ccccc3c2CC(NC(C)=O)C(=O)N2CCCC2C(=O)N1 (stereo unspecified)
COLO 205 colon
  TGI: > 100 µM
DU-145 prostate
  TGI: > 100 µM
HCC-2998 colon
  TGI: > 100 µM
NCI-H23 lung
  TGI: > 100 µM
PC-3 prostate
  TGI: > 100 µM
SF-268 CNS
  TGI: > 100 µM
SK-OV-3 ovarian
  TGI: > 100 µM
SNB-19 CNS
  TGI: > 100 µM
UACC-257 melanoma
  TGI: > 100 µM
UO-31 renal
  TGI: > 100 µM

## NC(CS)C(=O)NCCNc1ccc(NCCNC(=O)C(N)CS)c2c1C(=O)c1c(O)ccc(O)c1C2=O (stereo unspecified)
COLO 205 colon
  GI50: 0.136 µM
  TGI: 1.83 µM and 1.12 µM
DU-145 prostate
  TGI: 0.123 µM
HCC-2998 colon
  GI50: 0.196 µM
  TGI: 1.13 µM and 0.822 µM
NCI-H23 lung
  TGI: 0.0636 µM and 0.0484 µM
PC-3 prostate
  TGI: 1.13 µM
SF-268 CNS
  TGI: 0.953 µM
SK-OV-3 ovarian
  GI50: 0.0165 µM
SNB-19 CNS
  TGI: 1.11 µM and 1.21 µM
UACC-257 melanoma
  TGI: 2.41 µM and 2.29 µM
UO-31 renal
  GI50: 0.0598 µM
  TGI: 0.477 µM and 0.316 µM

## CCOC(=O)c1cc([N+](=O)[O-])cc([N+](=O)[O-])c1Sc1ncnc2nc[nH]c12
COLO 205 colon
  TGI: 5.03 µM
DU-145 prostate
  TGI: 5.42 µM
HCC-2998 colon
  TGI: 30.2 µM
PC-3 prostate
  TGI: 9.57 µM
SF-268 CNS
  TGI: 16 µM
SK-OV-3 ovarian
  TGI: 23.3 µM
SNB-19 CNS
  TGI: 43 µM
UO-31 renal
  TGI: 3.55 µM

## CN1C(=O)[C@@H]2[C@@H]3c4ccccc4N[C@@H]3c3[nH]c4ccccc4c3[C@@H]2C1=O
COLO 205 colon
  TGI: 36.5 µM
DU-145 prostate
  TGI: > 100 µM
HCC-2998 colon
  TGI: 40.3 µM
NCI-H23 lung
  TGI: 28.6 µM
PC-3 prostate
  TGI: 50.5 µM
SF-268 CNS
  TGI: 92.6 µM
SK-OV-3 ovarian
  TGI: 66.7 µM
SNB-19 CNS
  TGI: > 100 µM
UACC-257 melanoma
  TGI: 48.9 µM
UO-31 renal
  TGI: 43.9 µM

## Cc1ccc(Cc2n[nH]c(=O)n2N2C(=O)c3ccccc3C2=O)cc1
COLO 205 colon
  TGI: > 100 µM
DU-145 prostate
  TGI: > 100 µM
HCC-2998 colon
  TGI: > 100 µM
NCI-H23 lung
  TGI: > 100 µM
PC-3 prostate
  TGI: > 100 µM
SNB-19 CNS
  TGI: > 100 µM
UACC-257 melanoma
  TGI: > 100 µM
UO-31 renal
  TGI: > 100 µM

## CON(C(=O)OC(C)(C)C)c1ccccc1
COLO 205 colon
  TGI: > 100 µM
DU-145 prostate
  TGI: > 100 µM
HCC-2998 colon
  TGI: > 100 µM
NCI-H23 lung
  TGI: > 100 µM
PC-3 prostate
  TGI: > 100 µM
SF-268 CNS
  TGI: > 100 µM
SK-OV-3 ovarian
  TGI: > 100 µM
SNB-19 CNS
  TGI: > 100 µM
UACC-257 melanoma
  TGI: > 100 µM
UO-31 renal
  TGI: > 100 µM

## CN(C)C1(c2cc3ccccc3s2)CCCCC1
COLO 205 colon
  TGI: > 100 µM
DU-145 prostate
  TGI: > 100 µM
HCC-2998 colon
  TGI: 57 µM
NCI-H23 lung
  TGI: > 100 µM
PC-3 prostate
  TGI: > 100 µM
SF-268 CNS
  TGI: 52 µM
SK-OV-3 ovarian
  TGI: > 100 µM
SNB-19 CNS
  TGI: > 100 µM
UACC-257 melanoma
  TGI: 80.4 µM
UO-31 renal
  TGI: > 100 µM

## N#CCN1CCCN(CC#N)CCN(CC#N)CCCN(CC#N)CC1
COLO 205 colon
  TGI: > 100 µM
DU-145 prostate
  TGI: > 100 µM
HCC-2998 colon
  TGI: > 100 µM
NCI-H23 lung
  TGI: > 100 µM
PC-3 prostate
  TGI: > 100 µM
SF-268 CNS
  TGI: > 100 µM
SK-OV-3 ovarian
  TGI: > 100 µM
SNB-19 CNS
  TGI: > 100 µM
UACC-257 melanoma
  TGI: > 100 µM
UO-31 renal
  TGI: > 100 µM

## N#CC(C#N)C1CN2CCC1CC2 (stereo unspecified)
COLO 205 colon
  TGI: > 100 µM
DU-145 prostate
  TGI: > 100 µM
HCC-2998 colon
  TGI: > 100 µM
NCI-H23 lung
  TGI: > 100 µM
PC-3 prostate
  TGI: > 100 µM
SF-268 CNS
  TGI: > 100 µM
SK-OV-3 ovarian
  TGI: > 100 µM
SNB-19 CNS
  TGI: > 100 µM
UACC-257 melanoma
  TGI: > 100 µM
UO-31 renal
  TGI: > 100 µM

## Cc1cc(N)c2cc(NC(=O)Nc3ccc4nc(C)cc(N)c4c3)ccc2n1
COLO 205 colon
  TGI: > 100 µM
DU-145 prostate
  TGI: > 100 µM
HCC-2998 colon
  TGI: > 100 µM
NCI-H23 lung
  TGI: > 100 µM
PC-3 prostate
  TGI: > 100 µM
SF-268 CNS
  TGI: > 100 µM
SK-OV-3 ovarian
  TGI: > 100 µM
SNB-19 CNS
  TGI: > 100 µM
UACC-257 melanoma
  TGI: > 100 µM
UO-31 renal
  TGI: > 100 µM

## CCN(CCN(CC)C(=O)NC)C(=O)NC
COLO 205 colon
  TGI: > 100 µM
DU-145 prostate
  TGI: > 100 µM
HCC-2998 colon
  TGI: > 100 µM
NCI-H23 lung
  TGI: > 100 µM
PC-3 prostate
  TGI: > 100 µM
SF-268 CNS
  TGI: > 100 µM
SK-OV-3 ovarian
  TGI: > 100 µM
SNB-19 CNS
  TGI: > 100 µM
UACC-257 melanoma
  TGI: > 100 µM
UO-31 renal
  TGI: > 100 µM

## CCOP(=O)(OCC)C(C)(CC)/N=C(\N)NC#N (stereo unspecified)
COLO 205 colon
  TGI: > 100 µM
DU-145 prostate
  TGI: > 100 µM
HCC-2998 colon
  TGI: > 100 µM
NCI-H23 lung
  TGI: > 100 µM
PC-3 prostate
  TGI: > 100 µM
SF-268 CNS
  TGI: > 100 µM
SK-OV-3 ovarian
  TGI: > 100 µM
SNB-19 CNS
  TGI: > 100 µM
UACC-257 melanoma
  TGI: > 100 µM
UO-31 renal
  TGI: > 100 µM

## O=C(NCCC1CN(S(=O)(=O)C(F)(F)F)c2ccccc21)OCc1ccccc1 (stereo unspecified)
COLO 205 colon
  TGI: > 100 µM
DU-145 prostate
  TGI: > 100 µM
HCC-2998 colon
  TGI: > 100 µM
NCI-H23 lung
  TGI: > 100 µM
PC-3 prostate
  TGI: > 100 µM
SF-268 CNS
  TGI: > 100 µM
SK-OV-3 ovarian
  TGI: > 100 µM
SNB-19 CNS
  TGI: > 100 µM
UACC-257 melanoma
  TGI: > 100 µM
UO-31 renal
  TGI: > 100 µM

## CC1(C)OC2OC(C(=O)c3ccccc3)C3OC(C)(C)OC3C2O1 (stereo unspecified)
COLO 205 colon
  TGI: > 100 µM
DU-145 prostate
  TGI: > 100 µM
HCC-2998 colon
  TGI: > 100 µM
NCI-H23 lung
  TGI: > 100 µM
PC-3 prostate
  TGI: > 100 µM
SF-268 CNS
  TGI: > 100 µM
SK-OV-3 ovarian
  TGI: > 100 µM
SNB-19 CNS
  TGI: > 100 µM
UACC-257 melanoma
  TGI: > 100 µM
UO-31 renal
  TGI: > 100 µM

## COc1cc(C(=O)N(C(=O)N2CCCCC2)c2ccccc2)cc(OC)c1OC
COLO 205 colon
  TGI: > 100 µM
DU-145 prostate
  TGI: > 100 µM
HCC-2998 colon
  TGI: > 100 µM
NCI-H23 lung
  TGI: > 100 µM
PC-3 prostate
  TGI: > 100 µM
SK-OV-3 ovarian
  TGI: > 100 µM
SNB-19 CNS
  TGI: > 100 µM
UACC-257 melanoma
  TGI: > 100 µM
UO-31 renal
  TGI: > 100 µM

## COc1cccc(/C=N/NC(=O)CN(C)C)c1O
COLO 205 colon
  TGI: > 100 µM
DU-145 prostate
  TGI: > 100 µM
HCC-2998 colon
  TGI: > 100 µM
NCI-H23 lung
  TGI: > 100 µM
PC-3 prostate
  TGI: > 100 µM
SF-268 CNS
  TGI: > 100 µM
SK-OV-3 ovarian
  TGI: > 100 µM
SNB-19 CNS
  TGI: > 100 µM
UACC-257 melanoma
  TGI: > 100 µM
UO-31 renal
  TGI: > 100 µM

## O=C1c2c(F)c(F)c(F)c(F)c2SC2=Nc3cccc4cccc(c34)N12
COLO 205 colon
  TGI: 22.8 µM
DU-145 prostate
  TGI: 24.9 µM
HCC-2998 colon
  TGI: 28.5 µM
NCI-H23 lung
  TGI: 10.9 µM
PC-3 prostate
  TGI: 17.2 µM
SF-268 CNS
  TGI: 13.7 µM
SK-OV-3 ovarian
  TGI: 23.2 µM
SNB-19 CNS
  TGI: 21.1 µM
UACC-257 melanoma
  TGI: 13.2 µM
UO-31 renal
  TGI: 21.7 µM

## CC(=O)CC12NC(=O)N(C)N=C1N(C)C(=O)N(C)C2=O (stereo unspecified)
COLO 205 colon
  TGI: > 100 µM
DU-145 prostate
  TGI: > 100 µM
HCC-2998 colon
  TGI: > 100 µM
NCI-H23 lung
  TGI: > 100 µM
PC-3 prostate
  TGI: > 100 µM
SF-268 CNS
  TGI: > 100 µM
SK-OV-3 ovarian
  TGI: > 100 µM
UACC-257 melanoma
  TGI: 40.4 µM
UO-31 renal
  TGI: > 100 µM

## c1ccc(Sc2nc(Sc3ccccc3)nc(Sc3ccccc3)n2)cc1
COLO 205 colon
  TGI: 38.7 µM
DU-145 prostate
  TGI: 47.1 µM
HCC-2998 colon
  TGI: 37.8 µM
NCI-H23 lung
  TGI: > 100 µM
PC-3 prostate
  TGI: > 100 µM
SF-268 CNS
  TGI: > 100 µM
SK-OV-3 ovarian
  TGI: > 100 µM
SNB-19 CNS
  TGI: > 100 µM
UACC-257 melanoma
  TGI: > 100 µM
UO-31 renal
  TGI: > 100 µM

## CCOC(=O)[C@@]12NN=N[C@@H]1[C@H]1CO[C@H](c3ccccc3)N1C2=O
COLO 205 colon
  TGI: 23.5 µM
DU-145 prostate
  TGI: 34.3 µM
HCC-2998 colon
  TGI: 25.7 µM
NCI-H23 lung
  TGI: 32.8 µM
PC-3 prostate
  TGI: 26 µM
SF-268 CNS
  TGI: 30.8 µM
SK-OV-3 ovarian
  TGI: 33.6 µM
SNB-19 CNS
  TGI: 25 µM
UACC-257 melanoma
  TGI: 19.7 µM
